In ChEMBL document CHEMBL1128887, “3-benzyl-quinolones: Novel, potent inhibitors of mammalian topoisomerase II” (Bioorg Med Chem Lett, 1995):

How the values were obtained:
P388 = assay: In vitro cytotoxicity against P388 mouse leukemia cells; format: functional, cell-based
DNA topoisomerase II = DNA topoisomerase II (Homo sapiens, UniProt P11388+Q02880); assay: Inhibitory activity against HeLa cell Topoisomerase II; format: cell-based
Mus musculus [1] = assay: In vivo antitumor activity was measured as maximum tolerated dose in BDF1 male mice implanted with murine pancreatic adenocarcinoma (Panc 03) at dose schedule qd 3-11 administered iv; format: functional
Mus musculus [2] = assay: In vivo antitumor activity was measured as tumor growth inhibition in BDF1 male mice implanted with murine pancreatic adenocarcinoma (Panc 03) at dose schedule qd 3-11 administered iv; format: functional
Mus musculus [3] = assay: In vivo antitumor activity was measured as maximum tolerated dose in BDF1 male mice implanted with murine pancreatic adenocarcinoma (Panc 03) at dose schedule qd 3-9 administered sc; format: functional
Mus musculus [4] = assay: In vivo antitumor activity was measured as tumor growth inhibition in BDF1 male mice implanted with murine pancreatic adenocarcinoma (Panc 03) at dose schedule qd 3-9 administered sc; format: functional
Nucleic Acid = assay: Compound was evaluated for its activity against bacterial DNA gyrase; format: nucleic-acid assay, Bacteria
Mus musculus [5] = assay: In vivo antitumor activity was measured as maximum tolerated dose in BDF1 male mice implanted with murine pancreatic adenocarcinoma (Panc 03) at dose schedule qd 4-11 administered iv; format: functional
Mus musculus [6] = assay: In vivo antitumor activity was measured as tumor growth inhibition in BDF1 male mice implanted with murine pancreatic adenocarcinoma (Panc 03) at dose schedule qd 4-11 administered iv; format: functional
Mus musculus [7] = assay: In vivo antitumor activity was measured as maximum tolerated dose in BDF1 male mice implanted with murine pancreatic adenocarcinoma (Panc 03) at dose schedule qd 3,4,7,10 administered iv; format: functional
Mus musculus [8] = assay: In vivo antitumor activity was measured as tumor growth inhibition in BDF1 male mice implanted with murine pancreatic adenocarcinoma (Panc 03) at dose schedule qd 3,4,7,10 administered iv; format: functional
Mus musculus [9] = assay: In vivo antitumor activity was measured as maximum tolerated dose in BDF1 male mice implanted with murine pancreatic adenocarcinoma (Panc 03) at dose schedule qd 3, bid 4-9; sc bid 10,11 administered iv; format: functional
Mus musculus [10] = assay: In vivo antitumor activity was measured as tumor growth inhibition in BDF1 male mice implanted with murine pancreatic adenocarcinoma (Panc 03) at dose schedule qd 3, bid 4-9; sc bid 10,11 administered iv; format: functional
Mus musculus [11] = assay: In vivo antitumor activity was measured as maximum tolerated dose in BDF1 male mice implanted with murine pancreatic adenocarcinoma (Panc 03) at dose schedule qd 3-12 administered sc; format: functional
Mus musculus [12] = assay: In vivo antitumor activity was measured as tumor growth inhibition in BDF1 male mice implanted with murine pancreatic adenocarcinoma (Panc 03) at dose schedule qd 3-12 administered sc; format: functional
Mus musculus [13] = assay: In vivo antitumor activity was measured as maximum tolerated dose in BDF1 male mice implanted with murine pancreatic adenocarcinoma (Panc 03) at dose schedule qd 4-9 administered sc; format: functional
Mus musculus [14] = assay: In vivo antitumor activity was measured as tumor growth inhibition in BDF1 male mice implanted with murine pancreatic adenocarcinoma (Panc 03) at dose schedule qd 4-9 administered sc; format: functional
Mus musculus [15] = assay: In vivo antitumor activity was measured as maximum tolerated dose in BDF1 male mice implanted with murine pancreatic adenocarcinoma (Panc 03) at dose schedule qd 4,6,8,10,12,14,16 administered iv; format: functional
Mus musculus [16] = assay: In vivo antitumor activity was measured as tumor growth inhibition in BDF1 male mice implanted with murine pancreatic adenocarcinoma (Panc 03) at dose schedule qd 4,6,8,10,12,14,16 administered iv; format: functional

| SMILES | EC50 (DNA topoisomerase II) | IC50 (P388) | other results |
| --- | --- | --- | --- |
| COc1ccc(Cc2cn(C3CC3)c3c(F)c(-c4cc(C)nc(C)c4)c(F)cc3c2=O)cc1 | 14000 nM | 21000 nM |  |
| Cc1cc(-c2c(F)cc3c(=O)c(Cc4c[nH]cn4)cn(C4CC4)c3c2F)cc(C)n1 | 1600 nM | 390 nM |  |
| Cc1cc(-c2c(F)cc3c(=O)c(Cc4ccccc4NC(=O)C(F)(F)F)cn(C4CC4)c3c2F)cc(C)n1 | 4700 nM |  |  |
| Cc1cc(-c2c(F)cc3c(=O)c(Cc4ccccc4O)cn(C4CC4)c3c2F)cc(C)n1 | 330 nM | 670 nM | MTD (Mus musculus [1]): 225 mg/kg; T/C (Mus musculus [2]): 5% |
| Cc1cc(-c2c(F)cc3c(=O)ccn(C4CC4)c3c2F)cc(C)n1 |  |  | MTD (Mus musculus [3]): 2410 mg/kg; T/C (Mus musculus [4]): >100% |
| Cc1cc(-c2c(F)cc3c(=O)c(Cc4c(O)cccc4O)cn(C4CC4)c3c2F)cc(C)n1 | 96 nM | 250 nM | EC50 (Nucleic Acid): 140 nM; MTD (Mus musculus [5]): 12 mg/kg; T/C (Mus musculus [6]): 0% |
| Cc1cc(-c2c(F)cc3c(=O)c(Cc4ccccc4C(=O)O)cn(C4CC4)c3c2F)cc(C)n1 | 200000 nM |  |  |
| Cc1cc(-c2c(F)cc3c(=O)c(Cc4ccc(O)cc4)cn(C4CC4)c3c2F)cc(C)n1 | 1200 nM | 1500 nM |  |
| Cc1cc(-c2c(F)cc3c(=O)c(Cc4ccc(N)cc4)cn(C4CC4)c3c2F)cc(C)n1 | 7200 nM |  |  |
| Cc1cc(-c2c(F)cc3c(=O)c(Cc4cccc(O)c4O)cn(C4CC4)c3c2F)cc(C)n1 | 360 nM | 880 nM |  |
| Cc1cc(-c2c(F)cc3c(=O)c(CC4CCCCC4)cn(C4CC4)c3c2F)cc(C)n1 | > 230000 nM |  |  |
| Cc1cc(-c2c(F)cc3c(=O)c(Cc4ccc(Cl)cc4)cn(C4CC4)c3c2F)cc(C)n1 | 7700 nM | 20000 nM |  |
| Cc1cc(-c2c(F)cc3c(=O)c(Cc4ccc(O)cc4O)cn(C4CC4)c3c2F)cc(C)n1 | 160 nM | 210 nM | MTD (Mus musculus [7]): 20 mg/kg; T/C (Mus musculus [8]): 73% |
| COc1cccc(Cc2cn(C3CC3)c3c(F)c(-c4cc(C)nc(C)c4)c(F)cc3c2=O)c1 | 14000 nM | 20000 nM |  |
| Cc1cc(-c2c(F)cc3c(=O)c(Cc4ncc[nH]4)cn(C4CC4)c3c2F)cc(C)n1 | 1100 nM | 1100 nM | MTD (Mus musculus [9]): 88 mg/kg; T/C (Mus musculus [10]): 21% |
| Cc1cc(-c2c(F)cc3c(=O)c(Cc4ccccc4)cn(C4CC4)c3c2F)cc(C)n1 | 3900 nM | 7300 nM | MTD (Mus musculus [11]): 3749 mg/kg; T/C (Mus musculus [12]): >100% |
| COc1cc(NS(C)(=O)=O)ccc1Nc1c2ccccc2nc2ccccc12 [AMSACRINE] |  |  | MTD (Mus musculus [13]): 48 mg/kg; T/C (Mus musculus [14]): 0% |
| COc1cc([C@@H]2c3cc4c(cc3[C@@H](O[C@@H]3O[C@@H]5CO[C@@H](C)O[C@H]5[C@H](O)[C@H]3O)[C@H]3COC(=O)[C@H]23)OCO4)cc(OC)c1O [ETOPOSIDE] |  |  | MTD (Mus musculus [15]): 96 mg/kg; T/C (Mus musculus [16]): 3% |
| Cc1cc(-c2c(F)cc3c(=O)c(C(=O)O)cn(C4CC4)c3c2F)cc(C)n1 [WIN-57294] |  |  | MTD (Mus musculus [11]): 600 mg/kg; T/C (Mus musculus [12]): 31% |

Second part, led by results:

| EC50 (DNA topoisomerase II) | SMILES | IC50 (P388) | other results |
| --- | --- | --- | --- |
| > 210000 nM | Cc1cc(-c2c(F)cc3c(=O)c(Cc4cccc5ccccc45)cn(C4CC4)c3c2F)cc(C)n1 |  |  |
| 160 nM | Cc1cc(-c2c(F)cc3c(=O)c(Cc4cc(O)ccc4O)cn(C4CC4)c3c2F)cc(C)n1 | 360 nM |  |
| 98 nM | Cc1cc(-c2c(F)cc3c(=O)c(Cc4c(O)cc(O)cc4O)cn(C4CC4)c3c2F)cc(C)n1 | 470 nM |  |
| 9100 nM | Cc1cc(-c2c(F)cc3c(=O)c(Cc4ccncc4)cn(C4CC4)c3c2F)cc(C)n1 |  |  |
| 5100 nM | Cc1cc(-c2c(F)cc3c(=O)c(Cc4ccc[nH]4)cn(C4CC4)c3c2F)cc(C)n1 | 930 nM |  |
| 3300 nM | Cc1cc(-c2c(F)cc3c(=O)c(Cc4ccccc4NS(C)(=O)=O)cn(C4CC4)c3c2F)cc(C)n1 |  |  |
| 5100 nM | CC(=O)Nc1ccccc1Cc1cn(C2CC2)c2c(F)c(-c3cc(C)nc(C)c3)c(F)cc2c1=O |  |  |
| > 210000 nM | Cc1cc(-c2c(F)cc3c(=O)c(Cc4ccc(N(C)C)cc4)cn(C4CC4)c3c2F)cc(C)n1 |  |  |
| > 120000 nM | Cc1cc(-c2c(F)cc3c(=O)c(-c4ccccc4)cn(C4CC4)c3c2F)cc(C)n1 |  |  |
| 2100 nM | Cc1cc(-c2c(F)cc3c(=O)c(Cc4ccccc4N)cn(C4CC4)c3c2F)cc(C)n1 | 2100 nM |  |
| 12000 nM | Cc1cc(-c2c(F)cc3c(=O)c(Cc4ccccn4)cn(C4CC4)c3c2F)cc(C)n1 |  |  |
| 14000 nM | COc1ccccc1Cc1cn(C2CC2)c2c(F)c(-c3cc(C)nc(C)c3)c(F)cc2c1=O | 37000 nM |  |
| 1100 nM | Cc1cc(-c2c(F)cc3c(=O)c(Cc4cccc(O)c4)cn(C4CC4)c3c2F)cc(C)n1 | 2200 nM |  |
| > 100000 nM | CC(=O)Nc1ccc(Cc2cn(C3CC3)c3c(F)c(-c4cc(C)nc(C)c4)c(F)cc3c2=O)cc1 |  |  |
| > 120000 nM | Cc1cc(-c2c(F)cc3c(=O)c(CCc4ccccc4)cn(C4CC4)c3c2F)cc(C)n1 |  |  |
